The source of these data is publication PMC6838048, “A Cell-Free Approach Based on Phospholipid Characterization for Determination of the Cell Specific Unbound Drug Fraction (fu,cell)” (Pharmaceutical Research, 2019).

A short description of data set [1]: fu,cell by equilibrium dialysis of cell homogenate, HEK293. It is filed as in vitro ADME. The settings on record: human, dialysis 4 h 37°C, 10 million cells/mL homogenate, read-out: fu,HEK293 Geomean. On the procedure:
(§1) fu,cell was measured in cassette-mode as previously described with minor modifications ([9]). Briefly, 10 million cells/mL were suspended in HBSS buffered with 10 mM HEPES and homogenized on ice by sonication (VCX 750 Sonicator, 3 mm probe, 20% intensity, 10 s). Up to 8 compounds were combined randomly and spiked into the homogenate for a final concentration of 0.5 μM. Equilibrium dialysis was performed in a Rapid Equilibirum device (Thermo Fisher Scientific) against blank HBSS buffered with 10 mM HEPES, for 4 h at 37°C on an orbital shaker at 900 rpm. Stability controls were kept at 4° and 37°C for the duration of the experiment. The concentration in both dialysis chambers was quantified by extracting the compound with acetonitrile/water (60/40) containing internal standard. Matrixes were matched with blank buffer or cell homogenate, respectively. LC-MS/MS parameters are available in Table S9. All experiments were carried out in triplicates and at least at two independent occasions.
(§2) The unbound fraction in the cell homogenate (fu,hom) was determined according to Eq. (1):1 fu,hom=Cbuffer/Chom and the fraction of unbound compound in the cell (fu,cell) was calculated by correcting for homogenate dilution according to Eq. (2):2 fu,cell=1/DP∙1/fu,hom−1+1 where the dilution constant DP was calculated using Eq. (3), assuming the Vcell to be equal to 6.5 μL/mg protein ([6],[10]). Protein content in the cell homogenates was determined at each experiment using the BCA Protein Assay Reagent Kit (Thermo Fisher Scientific Inc.).3 DP=1/Vcell
A general note: In equilibrium dialysis free small molecules cross a membrane that holds back macromolecules.

Data set [2] is described as follows: fu,cell by equilibrium dialysis of cell homogenate, HL60. It is filed as in vitro ADME. Conditions: human, dialysis 4 h 37°C, 10 million cells/mL homogenate, read-out: fu,HL60 Geomean. On the procedure:
as §1, §2

Data set [3] is described as follows: fu,cell by equilibrium dialysis of cell homogenate, Caco-2. It is filed as in vitro ADME. The settings on record: human, Caco-2 cell homogenate, dialysis 4 h 37°C, 10 million cells/mL homogenate, read-out: fu,Caco-2 Geomean. On the procedure:
as §1
(§3) (3), assuming the Vcell to be equal to 6.5 μL/mg protein ([6],[10]). Protein content in the cell homogenates was determined at each experiment using the BCA Protein Assay Reagent Kit (Thermo Fisher Scientific Inc.).3 DP=1/Vcell

A short description of data set [4]: fu,cell by equilibrium dialysis of cell homogenate, LLC-PK1. It is filed as in vitro ADME. The settings on record: pig, dialysis 4 h 37°C, 10 million cells/mL homogenate, read-out: fu,LLCPK1 Geomean. Here is the method:
as §1, §2

A short description of data set [5]: fu,cell by equilibrium dialysis of cell homogenate, A549. Format: in vitro ADME. Conditions: human, dialysis 4 h 37°C, 10 million cells/mL homogenate, read-out: fu,A549 Geomean. Here is the method:
as §1, §2

Data set [6] can be described thus: fu,cell by equilibrium dialysis of cell homogenate, K562. It is filed as in vitro ADME. The settings on record: human, dialysis 4 h 37°C, 10 million cells/mL homogenate, read-out: fu,K562 Geomean. On the procedure: as §1, §2
Data set [7] is described as follows: fu,cell by equilibrium dialysis of cell homogenate, MDCK. It is filed as in vitro ADME. The settings on record: dog, dialysis 4 h 37°C, 10 million cells/mL homogenate, read-out: fu,MDCK Geomean. Here is the method: as §1, §3
Data set [8] can be described thus: fu,cell by equilibrium dialysis of cell homogenate, primary human hepatocytes. Conditions: primary human hepatocyte homogenate, dialysis 4 h 37°C, 10 million cells/mL homogenate, read-out: fu,HH Geomean. It is filed as in vitro ADME. Here is the method: as §1, §2
Data set [9] in a line: fu,PL from membrane affinity to PL-covered silica beads, PC. It is filed as in vitro ADME. The settings on record: beads coated with pure PC, 15 min incubation; for fraction unbound at 15 min: silica beads covered with phosphatidylcholine (PC), Transil, read-out: fu,PC Geomean. Here is the method:
(§4) f u,PL was derived from membrane affinity measurements to beads covered with PLs as previously described ([6]).
(§5) Cbuffer was quantified by LC-MS/MS in samples of the supernatant that was obtained after 15 min incubation time on an orbital shaker at 1000 rpm and subsequent separation from the beads by centrifugation at 750 x g. […] Unspecific binding was evaluated by incubations into wells without added lipids.

Data set [10] can be described thus: fu,PL from membrane affinity to PL-covered silica beads, PS. It is filed as in vitro ADME. Conditions: silica beads covered with phosphatidylserine (PS), Transil; beads coated with pure PS, 15 min incubation; read-out: fu,PS Geomean. On the procedure:
as §4, §5

The nature of data set [11]: fu,PL from membrane affinity to PL-covered silica beads, PE. It is filed as in vitro ADME. The settings on record: beads coated with pure PE, 15 min incubation; read-out: fu,PE Geomean. On the procedure: as §4, §5
The nature of data set [12]: fu,PL from membrane affinity to PL-covered silica beads, mixed beads. It is filed as in vitro ADME. Conditions: for fraction unbound at 15 min: mixed beads PC:PE:PS:PI 52:22:12:14 mol%, 15 min incubation, read-out: fu,mixed bead Geomean; for fu,PL (in words): examples of Fig. 3c, individual PL beads and mixed beads. On the procedure: as §4, §5
Data set [13] deals with cell types of the study. The settings on record: contributions from several PL subspecies combined (Fig. 5b).

For `CCOc1cc(CC(=O)N[C@@H](CC(C)C)c2ccccc2N2CCCCC2)ccc1C(=O)O` [Repaglinide], the fraction unbound at 4 h, 0.5 μM in data set [1] came to 0.0312; in data set [2], 0.0341; in data set [3], 0.0225; in data set [4], 0.0305; in [5], 0.0254; in [6] it was 0.0385. In addition, the fraction unbound at 4 h, 0.5 μM was 0.0269 in data set [7] and 0.0097 in data set [8]. Also, the fraction unbound at 15 min in data set [9] was found to be 0.0114; in data set [10], 0.0084; in data set [11], 0.0039; in data set [12], 0.0095. Further, the “predicted versus measured fu,cell” value in data set [13] is “consistently over-predicted”.

In the case of `CCN(CC)CCCC(C)Nc1c2ccc(Cl)cc2nc2ccc(OC)cc12` (stereo not shown) [Quinacrine], the fraction unbound at 4 h, 0.5 μM in data set [1] is 0.0075; in data set [4], 0.0008; in data set [5] it was 0.0009; in data set [6], 0.0164; in data set [7], 0.0036; in data set [8] it was 0.0066. Also, the “fu,PC Geomean” value in data set [9] stood at 0.0002. Also, the figures for the fraction unbound at 15 min in data set [10] and in [12] were 0.001 and 0.0029, respectively. Further, in [13], the “predicted versus measured fu,cell” value is “consistently over-predicted”.

Consider `Cc1cccc(C)c1OCC(=O)N[C@@H](Cc1ccccc1)[C@@H](O)C[C@H](Cc1ccccc1)NC(=O)[C@H](C(C)C)N1CCCNC1=O` [Lopinavir], for which the fraction unbound at 4 h, 0.5 μM worked out at 0.0155 in [1]; 0.0168 in data set [2]; 0.0122 in data set [3]; 0.0047 in data set [4]; 0.0056 in data set [5]; 0.0234 in data set [6]. The fraction unbound at 4 h, 0.5 μM is 0.0119 in data set [7] and 0.0044 in data set [8]. In addition, the fraction unbound at 15 min in data set [9] amounted to 0.0007; in [10] it was 0.0011; in data set [11], 0.0026; in data set [12], 0.0011. The “fu,PL (in words)” value in data set [12] was “low”.

Consider `COc1ccccc1Oc1c(NS(=O)(=O)c2ccc(C(C)(C)C)cc2)nc(-c2ncccn2)nc1OCCO` [Bosentan], for which the fraction unbound at 4 h, 0.5 μM was 0.0634 in data set [1]; 0.0579 in data set [2]; 0.0335 in [3]; 0.0538 in data set [4]; 0.0519 in data set [5]; 0.0856 in [6]. The values for the fraction unbound at 4 h, 0.5 μM in data set [7] and in data set [8] were 0.036 and 0.0337, respectively. For the same compound, the fraction unbound at 15 min in [9] was found to be 0.002; in data set [10] it was 0.0014; in data set [11] it was 0.0019; in data set [12], 0.004.

On to `CC[C@H](C)C(=O)O[C@H]1C[C@@H](C)C=C2C=C[C@H](C)[C@H](CC[C@@H]3C[C@@H](O)CC(=O)O3)[C@H]21` [Lovastatin], for which the fraction unbound at 4 h, 0.5 μM in data set [1] is 0.0074; in data set [2] it was 0.011; in [3], 0.0024; in data set [4], 0.002; in [5], 0.0012; in data set [6] it was 0.0055. Moreover, the fraction unbound at 4 h, 0.5 μM was found to be 0.0045 in [7] and 0.0013 in [8]. Also, the fraction unbound at 15 min in data set [9] was determined as 0.0004; in [10], 0.0002; in data set [11] it was 0.0011; in data set [12], 0.0002.

As to `CCCNC(=O)NS(=O)(=O)c1ccc(Cl)cc1` [Chlorpropamide], the fraction unbound at 4 h, 0.5 μM in [1] amounted to 0.571; in data set [2] it was 0.54; in data set [3], 0.654; in data set [4] it was 0.6; in data set [5], 0.376; in [6], 0.638. In addition, the fraction unbound at 4 h, 0.5 μM in [7] came to 0.349; in data set [8], 0.944. In addition, the fraction unbound at 15 min turned out to be 0.0534 in [9], 0.0089 in data set [10], 0.0109 in data set [11] and 0.0343 in data set [12]. In addition, the “fu,PL (in words)” value in [12] is recorded as “high”.

For the compound `COc1ccc([C@@H]2Sc3ccccc3N(CCN(C)C)C(=O)[C@@H]2OC(C)=O)cc1` [Diltiazem], the fraction unbound at 4 h, 0.5 μM in data set [1] came out at 0.0637; in [2] it was 0.206; in data set [3], 0.1; in [4], 0.0588; in data set [5] it was 0.0287; in [6], 0.119. Moreover, the fraction unbound at 4 h, 0.5 μM in data set [7] was 0.069; in data set [8] it was 0.0445. Besides, the fraction unbound at 15 min amounted to 0.0023 in data set [9], 0.0016 in [10], 0.0083 in [11] and 0.0034 in data set [12].
